Measured values taken from US10213428B2, “(4-((3R,4R)-3-methoxytetrahydro-pyran-4-ylamino)piperidin-1-yl)(5-methyl-6-(((2R,6S)-6-(p-tolyl)tetrahydro-2H-pyran-2-yl)methylamino)pyrimidin-4-yl)methanone citrate” (Centrexion Therapeutics Corporation, priority 2015, dated 2019).
pIC50: −log10 of the molar value.

What was measured:
[1] = Oral pharmacokinetics in dog; format: in vivo, beagle dogs; conditions: oral dose 5 μmol/kg
Text: The pharmacokinetics of the test compound following single intravenous (IV) or oral (PO) doses were examined in • female BALB/c mice (average weight: 25 g) • male Wistar(Han) rats (average weight: 260 g) • male and female Göttingen Minipigs (average weight: 24 kg) • male beagle dogs (average weight: 15 kg) All non-rodent species were fasted overnight prior to dosing, while mice and rats had food and water available ad libitum. The p.o. dose of the compound was usually administered as suspension in 0.5% Natrosol or as a 0.5% Natrosol/0.015% Tween 80 suspension. For i.v. dosing purposes, the doses were applied as a solution in 0.9% NaCL, or as a solution containing 9.1% HP-beta Cyclodextrin in water.
Blood was collected by venous sampling and soaking of the blood in EDTA coated tubes. Samples were collected for up to 48 h after administration of the test compound. Plasma was then separated by centrifugation (5 min by approximately 9000 g at 4° C.). For determination of the test compound, plasma was transferred into PCR plates. All samples were stored at approximately −20° C. until bioanalytics. The test compound concentrations in plasma were determined by HPLC MS/MS. The lower limit of quantification was between 0.5 nmol/L and 1 nmol/L.

[2] = X-ray powder diffraction: crystallinity and polymorphism; format: physicochemical
Text: X-ray powder diagrams were generated using a STOE-STADI P-diffractometer in transmission mode fitted with a MYTHEN-detector and a Cu-anode as X-ray source with monochromatic CuKα1 radiation (λ=1.54056 Å, 40 kV, 40 mA).

[3] = In vitro plasma protein binding (equilibrium dialysis), mouse; format: in vitro ADME; conditions: pH 7.4, dialysis 2 hours at 37° C., read-out: Fraction bound (converted)
Description: (§1) Dianorm Teflon dialysis cells (micro 0.2) are used. Each cell consists of a donor (i.e., buffer chamber) and an acceptor chamber (i.e., plasma chamber), separated by an ultrathin semipermeable membrane with a 5 kDa molecular weight cutoff. Stock solutions for each test compound are prepared in DMSO at 1 mM and diluted to a final concentration of 1.0 μM. Aliquots of 200 μL dialysis buffer (100 mM potassium phosphate, pH 7.4) are dispensed into the buffer chamber. Aliquots of 200 μL test compound dialysis solution are dispensed into the plasma chambers. Incubation is carried out for 2 hours under rotation at 37° C. Then, the dialysate is transferred into reaction tubes. The tubes for the buffer fraction contain 0.2 mL acetonitril/water (80/20 volume/volume). Aliquots of 25 μL of the plasma dialysate are transferred into deep well plates and mixed with 25 μL acetonitril/water (80/20 volume/volume), 25 μL buffer, 25 μL calibration solution and 25 μL Internal Standard solution. Protein precipitation is done by adding 200 μL acetonitrile. Aliquots of 50 μL of the buffer dialysate are transferred into deep well plates and mixed with 25 μL blank plasma, 25 μL Internal Standard solution and 200 μL acetonitril. Percent bound is calculated with the formula: % bound=(plasma concentration−buffer concentration/plasma concentration)×100.

plasma protein = experiment: as above; format: in vitro ADME; conditions: 1.0 μM, dialysis 2 hours at 37° C.
Description: as §1

hERG = target: T1, hERG (Homo sapiens, UniProt Q12809); experiment: hERG-channel assay (whole-cell patch clamp, HEK293 cells transfected with hERG cDNA); format: cell-based; conditions: human, HEK293 cells stably transfected with hERG cDNA, pH 7.4, read-out: inhibition of hERG-mediated potassium current
T1 construct: expressed in transfected cells
T1 sequence (Q12809 whole entry): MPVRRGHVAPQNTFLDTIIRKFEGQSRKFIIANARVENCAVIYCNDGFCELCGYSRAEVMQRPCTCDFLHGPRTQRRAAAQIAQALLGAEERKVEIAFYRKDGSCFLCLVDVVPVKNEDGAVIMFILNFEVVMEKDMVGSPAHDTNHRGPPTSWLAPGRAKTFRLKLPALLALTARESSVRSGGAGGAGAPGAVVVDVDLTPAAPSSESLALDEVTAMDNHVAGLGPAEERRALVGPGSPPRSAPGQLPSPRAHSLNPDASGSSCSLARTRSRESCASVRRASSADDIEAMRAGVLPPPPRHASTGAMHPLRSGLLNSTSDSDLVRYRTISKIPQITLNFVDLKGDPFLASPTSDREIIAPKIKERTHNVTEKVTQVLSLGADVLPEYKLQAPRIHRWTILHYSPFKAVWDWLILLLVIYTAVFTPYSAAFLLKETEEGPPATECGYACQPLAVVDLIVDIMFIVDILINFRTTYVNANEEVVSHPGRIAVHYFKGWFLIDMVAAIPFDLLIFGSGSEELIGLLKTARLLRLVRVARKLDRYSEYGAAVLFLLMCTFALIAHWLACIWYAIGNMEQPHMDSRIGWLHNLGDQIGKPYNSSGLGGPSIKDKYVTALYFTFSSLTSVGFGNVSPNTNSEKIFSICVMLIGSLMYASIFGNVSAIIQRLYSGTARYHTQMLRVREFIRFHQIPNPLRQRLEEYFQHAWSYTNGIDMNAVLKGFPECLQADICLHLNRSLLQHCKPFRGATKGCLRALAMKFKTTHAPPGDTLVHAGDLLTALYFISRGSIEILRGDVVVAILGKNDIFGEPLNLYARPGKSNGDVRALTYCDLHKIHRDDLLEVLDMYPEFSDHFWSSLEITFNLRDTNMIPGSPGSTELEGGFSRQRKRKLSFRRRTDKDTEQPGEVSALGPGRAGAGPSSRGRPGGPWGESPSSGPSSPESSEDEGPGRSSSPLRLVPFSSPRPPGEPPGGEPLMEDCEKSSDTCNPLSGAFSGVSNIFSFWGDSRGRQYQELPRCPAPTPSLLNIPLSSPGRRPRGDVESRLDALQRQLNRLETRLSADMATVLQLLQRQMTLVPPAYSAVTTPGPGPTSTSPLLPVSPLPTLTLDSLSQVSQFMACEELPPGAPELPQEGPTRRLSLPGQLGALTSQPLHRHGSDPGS
Text: (§2) HEK (human embryonic kidney) 293 cells were stably transfected with hERG cDNA. Cells determined for use in patch clamp experiments were cultivated without antibiotic.
(§3) Cells were superfused with a bath solution containing (mM): NaCl (137), KCl (4.0), MgCl2 (1.0), CaCl2 (1.8), Glucose (10), HEPES (10), pH 7.4 with NaOH. Patch pipettes were made from borosilicate glass tubing (Hilgenberg, Malsfeld, Germany) using a horizontal puller (DMZ-Universal Puller, Zeitz-Instrumente, Martinsried, Germany) and filled with pipette solution containing (mM): K-aspartate (130), MgCl2 (5.0), EGTA (5.0), K2ATP (4.0), HEPES (10.0), pH 7.2 with KOH. Resistance of the microelectrodes was in the range between 2 and 5 MΩ.
(§4) Membrane currents were recorded using an EPC-10 patch clamp amplifier (HEKA Electronics, Lambrecht, Germany) and PatchMaster software (HEKA). The current signals were Bessel filtered at 2.5 kHz before being digitized at 5 kHz.
(§5) hERG-mediated membrane currents were recorded at typically 28° C., using the whole-cell configuration of the patch-clamp technique. […] During each inter-pulse interval 4 pulses scaled down by a factor of 0.2 were recorded for a P/n leak subtraction procedure. […] The remaining uncompensated Rs was recorded as well as actual temperature and holding current.
(§6) The concentrations of the test item were applied sequentially on each of the different cells investigated. A steady state level of baseline current was measured for at least 90 s prior to the application of the first test article concentration. […]
(§7) Peak current amplitudes were measured 3 ms after the ramp to +40 mV. […] Residual currents (I/I0) were calculated for each cell as the fraction of actual average peak current and average baseline peak current. Current inhibition was expressed as (1−I/I0)*100%. […]

[4] = target: T2, hERG-mediated potassium current (Homo sapiens, UniProt Q12809); experiment: as above; format: cell-based; conditions: HEK293 cells, whole-cell patch clamp; read-out: IC50, inhibition of hERG-mediated potassium current
T2 construct: expressed in transfected cells
T2 sequence (Q12809 whole entry): as above
Text: as §2, §3, §4, §5, §6, §7

[5] = male, beagle, plasma, 5 umol/kg, mean values

CO[C@H]1COCC[C@H]1NC1CCN(C(=O)c2ncnc(NC[C@H]3CCC[C@@H](c4ccc(C)cc4)O3)c2C)CC1 [compound I, (4-((3R,4R)-3-methoxytetrahydro-pyran-4-ylamino)piperidin-1-yl)(5-methyl-6-(((2R,6S)-6-(p-tolyl)tetrahydro-2H-pyran-2-yl)methylamino)pyrimidin-4-yl)methanone]
AUC(0-inf) [1, 5]: 1.5 µM·h
Cmax [1, 5]: 317 nM
Tmax [1, 5]: 55 min
MRTtot ([1]; mean values): 346 min
F ([1]; oral bioavailability): 25%
crystallinity [2]: amorphous material
fraction unbound at 2 h, 1 μM [3]: 0.049
Fraction unbound (plasma protein): 4.9%
inhibition at 10 µM (hERG; at 10 μM): 12%
inhibition at 30 µM (hERG; at 30 μM): 28%
pIC50 [4]: < 4.52
